Laboratory results from PubChem BioAssay (NCI).
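Tested at 5 concentrations; 48 h exposure; 96-well plates; endpoints linearly interpolated, else capped at highest concentration. Abbreviation: GI50, concentration required for 50% inhibition of growth. TGI denotes the concentration required for complete inhibition of growth.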

Legend:
Assay in all cases: growth of human tumour cells (NCI), 48 h
SNB-75 CNS = tested on: SNB-75 CNS
SK-MEL-28 melanoma = tested on: SK-MEL-28 melanoma
HL-60(TB) leukemia = tested on: HL-60(TB) leukemia
UACC-257 melanoma = tested on: UACC-257 melanoma
SR leukemia = tested on: SR leukemia
NCI-H226 lung = tested on: NCI-H226 lung
HCT-116 colon = tested on: HCT-116 colon
RPMI-8226 leukemia = tested on: RPMI-8226 leukemia
SW-620 colon = tested on: SW-620 colon
UACC-62 melanoma = tested on: UACC-62 melanoma

Row | Structure (SMILES) | GI50 (SNB-75 CNS) [µM] | TGI (SNB-75 CNS) [µM] | GI50 (SK-MEL-28 melanoma) [µM] | TGI (SK-MEL-28 melanoma) [µM] | GI50 (HL-60(TB) leukemia) [µM] | TGI (HL-60(TB) leukemia) [µM] | GI50 (UACC-257 melanoma) [µM] | TGI (UACC-257 melanoma) [µM] | GI50 (SR leukemia) [µM] | TGI (SR leukemia) [µM] | GI50 (NCI-H226 lung) [µM] | TGI (NCI-H226 lung) [µM] | GI50 (HCT-116 colon) [µM] | TGI (HCT-116 colon) [µM] | GI50 (RPMI-8226 leukemia) [µM] | TGI (RPMI-8226 leukemia) [µM] | GI50 (SW-620 colon) [µM] | TGI (SW-620 colon) [µM] | GI50 (UACC-62 melanoma) [µM] | TGI (UACC-62 melanoma) [µM]
1 | COc1ccc(C(=O)/C=C/c2ccc(C)cc2)cc1OC | 8.93 | 21.3 | 16.5 | 30.1 | 23.2 | 62.4 | 16.2 | 30.3 | 2.4 | 6.83 | 13.5 | 31.5 | 4.69 | 17.7 | 17.5 | 47 | 10.2 | 21.8 | – | –
2 | COc1cc(NC(N)=NCCC(C)(C)Oc2ccc(C(F)(F)F)cc2)ncc1C#N | 1.55 | 3.02 | 1.83 | 3.23 | – | – | 1.7 | 3.11 | – | – | – | – | 1.46 | 2.83 | – | – | 1.69 | 3.46 | 1.78 | 3.18
3 | C[N-]c1nnnn1C.[Au+].c1ccc([PH+](c2ccccc2)c2ccccc2)cc1 | 4.75 | 11 | 1.39 | 3.13 | 0.189 | 0.567 | 2.03 | 6.51 | 1.11 | 4.12 | 4.98 | 14 | 11.7 | 23.9 | 1.29 | 4.54 | – | – | 2.06 | 6.87
4 | Cc1nn(-c2nc3ccccc3[nH]2)c(N)c1-c1ccc(Cl)cc1 | – | – | 20.9 | > 100 | 4.31 | 25.1 | 2.63 | 55.8 | 3.63 | > 100 | 8.66 | > 100 | 4.37 | > 100 | 4.37 | > 100 | 4.58 | > 100 | 5.9 | > 100
5 | Cc1ccc(S(=O)(=O)NC(=O)C2C(=O)CC3(CCCCC3)CC2=O)cc1 | – | > 100 | – | – | – | 65.8 | – | 78.1 | – | – | – | > 100 | – | 74.4 | – | 51.5 | – | 84.7 | – | 83.8
6 | COc1ccc(-c2cn[nH]c2-c2cc(OC)c3c(c2)OCO3)cc1 | 0.134 | 0.707 | 1.22 | 28.5 | 0.22 | 0.771 | – | – | 0.0631 | 16.8 | 1.34 | 22.3 | 0.277 | 11.7 | 0.314 | 14.5 | 0.141 | 23.2 | 0.397 | 14.9
7 | [Cl-].[O-]/N=C(\c1ccccc1)c1ccccn1.[O-]/N=C(\c1ccccc1)c1ccccn1.[O-]/N=C(\c1ccccc1)c1ccccn1.[Sm+3] | 4.49 | 31.3 | 30.5 | 94.8 | 20.1 | 62.1 | 23.8 | 73.6 | – | – | 24.1 | 62.5 | 41.2 | > 100 | 47.4 | > 100 | 34.5 | > 100 | 26.2 | 78.7
8 | Cc1cc2c(ccc3c(C)cc(=O)oc32)o1 | – | > 100 | – | > 100 | – | – | – | > 100 | – | > 100 | – | > 100 | – | > 100 | – | > 100 | – | > 100 | – | > 100
9 | COC(=O)N(C(=O)OC)C(C(=O)O)C(C)C (configuration not stated) | – | > 100 | – | > 100 | – | > 100 | – | > 100 | – | – | – | > 100 | – | – | – | – | – | > 100 | – | –
10 | C=C1C(=O)O[C@@H]2C[C@@H](C)[C@@H]3C=CC(=O)[C@@]3(C)[C@@H](OC(=O)CC(=O)O[C@H]3[C@@H]4C(=C)C(=O)O[C@@H]4C[C@@H](C)[C@@H]4C=CC(=O)[C@]43C)[C@H]12 | – | 1.54 | – | 0.11 | – | – | – | 0.0812 | – | 0.0548 | – | 0.3 | – | 0.0398 | – | 0.0866 | – | 0.0326 | – | 0.0716
11 | c1cc(N(CCn2cccn2)CCn2cccn2)cc(N(CCn2cccn2)CCn2cccn2)c1 | – | > 100 | – | > 100 | – | > 100 | – | > 100 | – | > 100 | – | – | – | > 100 | – | > 100 | – | > 100 | – | > 100
12 | O=c1nc(/C=C/c2ccccc2Cl)cc2n1CCN2CCO | – | > 100 | – | > 100 | – | > 100 | – | – | – | > 100 | – | > 100 | – | > 100 | – | > 100 | – | > 100 | – | > 100
13 | Fc1ccc2[nH]cc(-c3nonc3-c3c[nH]c4ccc(Br)cc34)c2c1 | 1.89 | 16.9 | 2.86 | 8.15 | 2.94 | 11.6 | 4.17 | 13.8 | – | – | 2.13 | 5.3 | 1.84 | 4.23 | 2.49 | 9.91 | 1.76 | 3.84 | 1.72 | 4.38
14 | COc1cc(-c2cc3ncccc3c3nc(N)c4cccnc4c23)cc(OC)c1OC | – | – | 2.93 | > 100 | 0.217 | 0.717 | 2.08 | 44.7 | 0.124 | 4.97 | 16.8 | > 100 | – | – | 0.556 | 23.9 | 0.468 | > 100 | 0.358 | 19.4
15 | Cc1cc(S(=O)(=O)Nc2nc3cscc3c(=O)n2Cc2ccccc2)c(S)cc1Cl | > 100 | > 100 | 74.3 | > 100 | 44.1 | > 100 | > 100 | > 100 | – | – | 60.1 | > 100 | 27.5 | > 100 | 26.7 | > 100 | 26.6 | > 100 | 50.5 | > 100
16 | C=C(c1ccc2nc(NC(=O)OC)[nH]c2c1)c1cccs1 | – | – | – | > 100 | – | > 32.7 | – | > 100 | – | 1.11 | – | > 94.5 | – | > 45.2 | – | 3.59 | – | > 100 | – | > 100
17 | CCCCCC[N+](C)(C)Cc1ccc(C[N+](C)(C)CCCCCC)cc1 | – | 10.8 | – | 23.6 | – | – | – | 35.5 | – | 5.08 | – | 20.4 | – | 12.8 | – | 9.96 | – | 26.6 | – | 29.7
